Experiments:
HNSCC tumors = experiment: Endogenous ceramide and SM levels in HNSCC tumors, LC/MS; design: species or system SCID mice; details: mouse, in vivo
Description: FIG. 28. […] The levels of C14-, C16-, C18-, C24-, C24:1-, dihydro-C16-ceramides, and sphingosine are shown in (A), and C18:1-, C20-ceramides, and dihydro-sphingosine, and sphingosine-1-phosphate levels are shown in (B). The levels of C16-, C22-, C-24 and C24:1-SM levels are shown in (C), and C14-, C18-, C18:1-, C20, C20:1, and C22:1 SM levels are shown in (D).

[1] = test system: MCF7 breast carcinoma cells; experiment: Cell proliferation and viability, Trypan blue exclusion assay; type: cell-based; details: 48 h
Method in brief: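 Cells seeded overnight in 10% FCS, then exposed to LCL compounds at 0-20 μM in ethanol (below 0.1%) for 48 h. Viable cell numbers counted by Trypan blue exclusion under light microscope, expressed as percentage of untreated controls; duplicate samples, two or three independent experiments.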

In the case of `CCCCCCCCCCCCC/C=C/[C@H](O)[C@H](CO)NC(=O)CCCCC[n+]1ccccc1.[Br-]` [LCL124, L-threo-2-N-[6′-(1″-Pyridinium)-hexanoyl]-sphingosine Bromide], the “effect on endogenous SM levels” value (HNSCC tumors) was “no significant changes were observed”, the “effect on endogenous ceramides in tumor site” value (HNSCC tumors) was “did not cause any sustained elevation of endogenous ceramides” and the “inhibitory effect on MCF7 cell growth (in words)” value [1] was “caused inhibitory effect on MCF7 cell growth”.
